Values joined by “and” are separate entries in the source; they are usually repeats but may differ in a detail not shown here. Equal entries are not always repeated. Where two headings read alike, the source gives them in different places.
Tests used:
insulin receptor [1] = target: T1, insulin receptor (Homo sapiens, UniProt P06213); assay: Insulin receptor competition binding assay (scintillation proximity); set-up: expressed in transfected cells; plasma membrane fragments
insulin receptor [2] = target: T1, insulin receptor; assay: Insulin receptor phosphorylation assay in receptor transfected HEK293 cells; format: cell-based; set-up: expressed in transfected cells; host or cells: HEK293
IGF-1 receptor [3] = target: T2, IGF-1 receptor (Homo sapiens, UniProt P08069); assay: IGF-1 receptor competition binding assay (scintillation proximity); set-up: expressed in transfected cells; plasma membrane fragments
IGF-1 receptor [4] = target: T2, IGF-1 receptor; assay: IGF-1 receptor phosphorylation assay in receptor transfected HEK293 cells; format: cell-based; set-up: expressed in transfected cells; host or cells: HEK293
[5] = Table 9, IGF-1 receptor versus insulin receptor

T1 sequence (P06213 28-758 limits assumed): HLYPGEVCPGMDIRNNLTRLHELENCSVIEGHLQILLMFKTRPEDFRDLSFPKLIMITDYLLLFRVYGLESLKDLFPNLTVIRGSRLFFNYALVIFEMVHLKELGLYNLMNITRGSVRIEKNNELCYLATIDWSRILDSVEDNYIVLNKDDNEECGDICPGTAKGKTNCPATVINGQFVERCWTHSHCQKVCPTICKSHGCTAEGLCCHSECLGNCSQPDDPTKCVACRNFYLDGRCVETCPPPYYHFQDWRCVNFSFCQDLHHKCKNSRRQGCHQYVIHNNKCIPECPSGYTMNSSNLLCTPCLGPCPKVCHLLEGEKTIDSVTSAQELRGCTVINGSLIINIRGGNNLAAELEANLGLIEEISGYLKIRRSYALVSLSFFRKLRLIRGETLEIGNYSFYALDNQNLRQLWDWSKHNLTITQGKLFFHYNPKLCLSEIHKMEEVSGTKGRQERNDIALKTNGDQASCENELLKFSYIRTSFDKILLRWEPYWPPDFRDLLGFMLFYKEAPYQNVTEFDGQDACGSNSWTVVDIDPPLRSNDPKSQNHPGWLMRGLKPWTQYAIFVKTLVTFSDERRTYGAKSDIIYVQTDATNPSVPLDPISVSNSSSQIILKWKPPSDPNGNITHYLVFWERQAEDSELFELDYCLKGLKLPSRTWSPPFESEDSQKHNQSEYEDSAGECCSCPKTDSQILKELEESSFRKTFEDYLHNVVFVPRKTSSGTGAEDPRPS
T1 sequence (P06213 763-1382 partner limits assumed): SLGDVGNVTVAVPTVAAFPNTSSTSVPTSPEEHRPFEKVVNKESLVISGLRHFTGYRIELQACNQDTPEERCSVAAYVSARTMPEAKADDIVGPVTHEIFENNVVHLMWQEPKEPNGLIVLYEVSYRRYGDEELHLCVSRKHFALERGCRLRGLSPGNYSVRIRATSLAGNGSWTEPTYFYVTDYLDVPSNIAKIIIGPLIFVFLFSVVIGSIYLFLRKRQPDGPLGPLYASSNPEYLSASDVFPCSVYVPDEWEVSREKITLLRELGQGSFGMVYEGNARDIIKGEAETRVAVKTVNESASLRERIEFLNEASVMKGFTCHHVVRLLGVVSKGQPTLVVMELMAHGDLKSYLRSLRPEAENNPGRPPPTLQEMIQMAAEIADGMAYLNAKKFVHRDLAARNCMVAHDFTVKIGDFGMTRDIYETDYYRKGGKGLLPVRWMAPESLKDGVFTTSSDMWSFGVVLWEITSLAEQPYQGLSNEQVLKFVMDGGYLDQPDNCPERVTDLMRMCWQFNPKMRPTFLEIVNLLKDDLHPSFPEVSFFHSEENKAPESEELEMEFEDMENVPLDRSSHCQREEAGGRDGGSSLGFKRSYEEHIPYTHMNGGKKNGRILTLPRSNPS
T2 sequence (P08069 31-736 limits assumed): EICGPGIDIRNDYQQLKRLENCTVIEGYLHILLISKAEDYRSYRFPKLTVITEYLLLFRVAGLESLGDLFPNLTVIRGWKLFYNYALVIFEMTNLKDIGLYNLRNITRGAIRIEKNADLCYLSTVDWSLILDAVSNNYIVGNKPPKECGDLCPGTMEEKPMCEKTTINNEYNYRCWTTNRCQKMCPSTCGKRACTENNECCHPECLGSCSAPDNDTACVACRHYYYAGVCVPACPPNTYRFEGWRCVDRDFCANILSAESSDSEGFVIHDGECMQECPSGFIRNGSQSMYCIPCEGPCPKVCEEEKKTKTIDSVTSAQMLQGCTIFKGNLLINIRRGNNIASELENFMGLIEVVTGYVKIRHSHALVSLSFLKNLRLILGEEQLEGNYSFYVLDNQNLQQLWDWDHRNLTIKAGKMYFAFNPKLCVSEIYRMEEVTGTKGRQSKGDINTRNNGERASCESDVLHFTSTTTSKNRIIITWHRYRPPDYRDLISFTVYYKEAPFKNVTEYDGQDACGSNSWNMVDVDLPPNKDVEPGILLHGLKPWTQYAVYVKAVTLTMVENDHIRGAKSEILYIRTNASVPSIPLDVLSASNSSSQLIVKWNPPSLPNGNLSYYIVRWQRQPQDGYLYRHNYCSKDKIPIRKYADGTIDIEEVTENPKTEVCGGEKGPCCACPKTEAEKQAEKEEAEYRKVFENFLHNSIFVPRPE
T2 sequence (P08069 741-1367 partner limits assumed): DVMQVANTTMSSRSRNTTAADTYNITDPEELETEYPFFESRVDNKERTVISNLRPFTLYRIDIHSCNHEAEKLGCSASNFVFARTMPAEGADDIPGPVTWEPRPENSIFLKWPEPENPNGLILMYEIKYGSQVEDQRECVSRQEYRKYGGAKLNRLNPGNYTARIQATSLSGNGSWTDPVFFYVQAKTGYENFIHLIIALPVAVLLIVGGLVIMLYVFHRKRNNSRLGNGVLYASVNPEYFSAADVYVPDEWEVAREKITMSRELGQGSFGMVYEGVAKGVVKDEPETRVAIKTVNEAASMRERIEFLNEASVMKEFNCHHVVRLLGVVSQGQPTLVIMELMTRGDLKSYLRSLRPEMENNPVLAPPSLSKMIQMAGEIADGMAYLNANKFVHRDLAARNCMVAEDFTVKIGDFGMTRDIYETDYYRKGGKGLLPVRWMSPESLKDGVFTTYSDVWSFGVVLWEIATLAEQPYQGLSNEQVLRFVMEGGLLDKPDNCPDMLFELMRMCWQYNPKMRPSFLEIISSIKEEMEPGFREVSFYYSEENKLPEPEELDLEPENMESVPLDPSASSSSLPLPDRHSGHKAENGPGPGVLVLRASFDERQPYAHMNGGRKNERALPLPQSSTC

% insulin (in test) (insulin receptor [1]; Table 9, Insulin Receptor)	% Insulin (insulin receptor [2]; Table 10, Insulin Receptor)	% IGF-1 (in test) (IGF-1 receptor [3]; Table 9, IGF-1 Receptor)	Ratio (IGF-1 receptor [3]; [5])	% IGF (IGF-1 receptor [4]; Table 10, IGF-1 Receptor) [%]	Structure (SMILES)	% native insulin activity (0.6 nM) (insulin receptor [1]; Table 9, Insulin Receptor)	further results
479.0%		11.2%	29.1	7.1	CC[C@H](C)[C@H](NC(=O)CN)C(=O)N[C@H](C(=O)N[C@@H](CC(=O)O)C(=O)N[C@@H](CCC(=O)O)C(=O)N[C@H]1CSSC[C@@H]2NC(=O)[C@H](CO)NC(=O)[C@H](CCCNC(=N)N)NC(=O)[C@H](Cc3ccccc3)NC(=O)[C@H](CSSC[C@H](NC(=O)[C@H](CC(C)C)NC(=O)[C@H](Cc3c[nH]cn3)NC(=O)[C@H](CCC(=O)O)NC(=O)[C@@H]3CCCN3C(=O)CN)C(=O)NCC(=O)N[C@@H](C)C(=O)N[C@@H](CC(=O)O)C(=O)N[C@@H](CC(C)C)C(=O)N[C@@H](C(C)C)C(=O)N[C@@H](CC(=O)O)C(=O)N[C@@H](C)C(=O)N[C@@H](CC(C)C)C(=O)N[C@@H](Cc3ccc(O)cc3)C(=O)N[C@@H](CC(C)C)C(=O)N[C@@H](C(C)C)C(=O)N[C@H](C(=O)NCC(=O)N[C@@H](CC(=O)O)C(=O)N[C@@H](CCCNC(=N)N)C(=O)NCC(=O)N[C@@H](Cc3ccccc3)C(=O)N[C@@H](Cc3ccc(O)cc3)C(N)=O)CSSC[C@@H](C(=O)N[C@@H](C)C(N)=O)NC(=O)[C@H](Cc3ccc(O)cc3)NC(=O)[C@H](CCSC)NC(=O)[C@H](CCC(=O)O)NC(=O)[C@H](CC(C)C)NC(=O)[C@H](CCCNC(=N)N)NC(=O)[C@H](CCCNC(=N)N)NC(=O)[C@H](CC(C)C)NC(=O)[C@H](CC(=O)O)NC2=O)NC1=O)C(C)C [IGF-1 A:B (H5D10Y16L17) DPI]		
1576.7% and 1667.0%		12.9%	80.6	181.395	CC[C@H](C)[C@H](NC(=O)CN)C(=O)N[C@H](C(=O)N[C@@H](CC(=O)O)C(=O)N[C@@H](CCC(=O)O)C(=O)N[C@H]1CSSC[C@@H]2NC(=O)[C@H](CO)NC(=O)[C@H](C)NC(=O)[C@H](Cc3c[nH]cn3)NC(=O)[C@H](CSSC[C@H](NC(=O)[C@H](CC(C)C)NC(=O)[C@H](Cc3c[nH]cn3)NC(=O)[C@H](CCC(=O)O)NC(=O)[C@@H]3CCCN3C(=O)CN)C(=O)NCC(=O)N[C@@H](C)C(=O)N[C@@H](CC(=O)O)C(=O)N[C@@H](CC(C)C)C(=O)N[C@@H](C(C)C)C(=O)N[C@@H](CC(=O)O)C(=O)N[C@@H](C)C(=O)N[C@@H](CC(C)C)C(=O)N[C@@H](Cc3ccc(O)cc3)C(=O)N[C@@H](CC(C)C)C(=O)N[C@@H](C(C)C)C(=O)N[C@H](C(=O)NCC(=O)N[C@@H](CC(=O)O)C(=O)N[C@@H](CCCNC(=N)N)C(=O)NCC(=O)N[C@@H](Cc3ccccc3)C(=O)N[C@@H](Cc3ccc(O)cc3)C(N)=O)CSSC[C@@H](C(=O)N[C@@H](CC(N)=O)C(=O)O)NC(=O)[C@H](Cc3ccc(O)cc3)NC(=O)[C@H](CCSC)NC(=O)[C@H](CCC(=O)O)NC(=O)[C@H](CC(C)C)NC(=O)[C@H](CCCNC(=N)N)NC(=O)[C@H](CCCNC(=N)N)NC(=O)[C@H](CC(C)C)NC(=O)[C@H](CC(=O)O)NC2=O)NC1=O)C(C)C		% Insulin (insulin receptor [2]; Table 10, Insulin Receptor, listed as IGF-1 A (H8 A9 N21) B(H5D10Y16L17) DPI A-COOH): 840% and 1080%

Second part, the compound before the results:

Structure (SMILES)	% insulin (in test) (insulin receptor [1]; Table 9, Insulin Receptor)	% Insulin (insulin receptor [2]; Table 10, Insulin Receptor)	% IGF-1 (in test) (IGF-1 receptor [3]; Table 9, IGF-1 Receptor)	Ratio (IGF-1 receptor [3]; [5])	% IGF (IGF-1 receptor [4]; Table 10, IGF-1 Receptor) [%]	% native insulin activity (0.6 nM) (insulin receptor [1]; Table 9, Insulin Receptor)	further results
CC[C@H](C)[C@H](NC(=O)CN)C(=O)N[C@H](C(=O)N[C@@H](CC(=O)O)C(=O)N[C@@H](CCC(=O)O)C(=O)N[C@H]1CSSC[C@@H]2NC(=O)[C@H](CO)NC(=O)[C@H](CCCNC(=N)N)NC(=O)[C@H](Cc3ccccc3)NC(=O)[C@H](CSSC[C@H](NC(=O)[C@H](CC(C)C)NC(=O)[C@@H](NC(=O)[C@H](CCC(=O)O)NC(=O)[C@@H]3CCCN3C(=O)CN)[C@@H](C)O)C(=O)NCC(=O)N[C@@H](C)C(=O)N[C@@H](CCC(=O)O)C(=O)N[C@@H](CC(C)C)C(=O)N[C@@H](C(C)C)C(=O)N[C@@H](CC(=O)O)C(=O)N[C@@H](C)C(=O)N[C@@H](CC(C)C)C(=O)N[C@@H](Cc3ccc(O)cc3)C(=O)N[C@@H](CC(C)C)C(=O)N[C@@H](C(C)C)C(=O)N[C@H](C(=O)NCC(=O)N[C@@H](CC(=O)O)C(=O)N[C@@H](CCCNC(=N)N)C(=O)NCC(=O)N[C@@H](Cc3ccccc3)C(=O)N[C@@H](Cc3ccc(O)cc3)C(=O)N[C@@H](Cc3ccccc3)C(=O)N[C@@H](CC(N)=O)C(=O)N[C@@H](CCCCN)C(=O)N3CCC[C@H]3C(=O)N[C@H](C(N)=O)[C@@H](C)O)CSSC[C@@H](C(=O)N[C@@H](C)C(N)=O)NC(=O)[C@H](Cc3ccc(O)cc3)NC(=O)[C@H](CCSC)NC(=O)[C@H](CCC(=O)O)NC(=O)[C@H](CC(C)C)NC(=O)[C@H](CCCNC(=N)N)NC(=O)[C@H](CCCNC(=N)N)NC(=O)[C@H](CC(C)C)NC(=O)[C@H](CC(=O)O)NC2=O)NC1=O)C(C)C [IGF-1 A:B(E10Y16L17)]	58.7% and 98.8%	49.2%	6.8% and 5.0%	11.9	13	90.9% and 117.6%	IC50 (insulin receptor [1]; IC50:): 0.51 nM; IC80 (IGF-1 receptor [3]; Table 9, IGF-1 Receptor): 12.2 nM
CC[C@H](C)[C@H](NC(=O)CN)C(=O)N[C@H](C(=O)N[C@@H](CC(=O)O)C(=O)N[C@@H](CCC(=O)O)C(=O)N[C@H]1CSSC[C@@H]2NC(=O)[C@H](CO)NC(=O)[C@H](CCCNC(=N)N)NC(=O)[C@H](Cc3ccccc3)NC(=O)[C@H](CSSC[C@H](NC(=O)[C@H](CC(C)C)NC(=O)[C@@H](NC(=O)[C@H](CCC(=O)O)NC(=O)[C@@H]3CCCN3C(=O)CN)[C@@H](C)O)C(=O)NCC(=O)N[C@@H](C)C(=O)N[C@@H](CC(=O)O)C(=O)N[C@@H](CC(C)C)C(=O)N[C@@H](C(C)C)C(=O)N[C@@H](CC(=O)O)C(=O)N[C@@H](C)C(=O)N[C@@H](CC(C)C)C(=O)N[C@@H](Cc3ccc(O)cc3)C(=O)N[C@@H](CC(C)C)C(=O)N[C@@H](C(C)C)C(=O)N[C@H](C(=O)NCC(=O)N[C@@H](CC(=O)O)C(=O)N[C@@H](CCCNC(=N)N)C(=O)NCC(=O)N[C@@H](Cc3ccccc3)C(=O)N[C@@H](Cc3ccc(O)cc3)C(N)=O)CSSC[C@@H](C(=O)N[C@@H](C)C(=O)O)NC(=O)[C@H](Cc3ccc(O)cc3)NC(=O)[C@H](CCSC)NC(=O)[C@H](CCC(=O)O)NC(=O)[C@H](CC(C)C)NC(=O)[C@H](CCCNC(=N)N)NC(=O)[C@H](CCCNC(=N)N)NC(=O)[C@H](CC(C)C)NC(=O)[C@H](CC(=O)O)NC2=O)NC1=O)C(C)C [IGF-1 A:B(D10Y16L17) DPI A-COOH]		1575%	7.7%		111.538		
CC[C@H](C)[C@H](NC(=O)CN)C(=O)N[C@H](C(=O)N[C@@H](CC(=O)O)C(=O)N[C@@H](CCC(=O)O)C(=O)N[C@H]1CSSC[C@@H]2NC(=O)[C@H](CO)NC(=O)[C@H](C)NC(=O)[C@H](Cc3c[nH]cn3)NC(=O)[C@H](CSSC[C@H](NC(=O)[C@H](CC(C)C)NC(=O)[C@H](Cc3c[nH]cn3)NC(=O)[C@H](CCC(=O)O)NC(=O)[C@@H]3CCCN3C(=O)CN)C(=O)NCC(=O)N[C@@H](C)C(=O)N[C@@H](CC(=O)O)C(=O)N[C@@H](CC(C)C)C(=O)N[C@@H](C(C)C)C(=O)N[C@@H](CC(=O)O)C(=O)N[C@@H](C)C(=O)N[C@@H](CC(C)C)C(=O)N[C@@H](Cc3ccc(O)cc3)C(=O)N[C@@H](CC(C)C)C(=O)N[C@@H](C(C)C)C(=O)N[C@H](C(=O)NCC(=O)N[C@@H](CC(=O)O)C(=O)N[C@@H](C)C(=O)NCC(=O)N[C@@H](Cc3ccccc3)C(=O)N[C@@H](Cc3ccc(O)cc3)C(N)=O)CSSC[C@@H](C(=O)N[C@@H](CC(N)=O)C(=O)O)NC(=O)[C@H](Cc3ccc(O)cc3)NC(=O)[C@H](CCSC)NC(=O)[C@H](CCC(=O)O)NC(=O)[C@H](CC(C)C)NC(=O)[C@H](CCCNC(=N)N)NC(=O)[C@H](CCCNC(=N)N)NC(=O)[C@H](CC(C)C)NC(=O)[C@H](CC(=O)O)NC2=O)NC1=O)C(C)C							% insulin (in test) (insulin receptor [1]): 1171.4%; % Insulin (insulin receptor [2]): 360% and 614%; % IGF-1 (in test) (IGF-1 receptor [3]): 2.3%; Ratio (IGF-1 receptor [3]): 190.3; % IGF (IGF-1 receptor [4]): 7.7%; Selective Ratio (IGF-1 receptor [4]): 32.54
CC[C@H](C)[C@H](NC(=O)CN)C(=O)N[C@H](C(=O)N[C@@H](CC(=O)O)C(=O)N[C@@H](CCC(=O)O)C(=O)N[C@H]1CSSC[C@@H]2NC(=O)[C@H](CO)NC(=O)[C@H](CCCNC(=N)N)NC(=O)[C@H](Cc3ccccc3)NC(=O)[C@H](CSSC[C@H](NC(=O)[C@H](CC(C)C)NC(=O)[C@@H](NC(=O)[C@H](CCC(=O)O)NC(=O)[C@@H]3CCCN3C(=O)CN)[C@@H](C)O)C(=O)NCC(=O)N[C@@H](C)C(=O)N[C@@H](CCC(=O)O)C(=O)N[C@@H](CC(C)C)C(=O)N[C@@H](C(C)C)C(=O)N[C@@H](CC(=O)O)C(=O)N[C@@H](C)C(=O)N[C@@H](CC(C)C)C(=O)N[C@@H](Cc3ccc(O)cc3)C(=O)N[C@@H](CC(C)C)C(=O)N[C@@H](C(C)C)C(=O)N[C@H](C(=O)NCC(=O)N[C@@H](CC(=O)O)C(=O)N[C@@H](CCCNC(=N)N)C(=O)NCC(=O)N[C@@H](Cc3ccccc3)C(=O)N[C@@H](Cc3ccc(O)cc3)C(=O)N[C@@H](Cc3ccccc3)C(=O)N[C@@H](CC(N)=O)C(=O)N[C@@H](CCCCN)C(=O)N3CCC[C@H]3C(=O)N[C@H](C(=O)N[C@@H](CCC(=O)O)C(=O)N[C@@H](CCC(=O)O)C(=O)O)[C@@H](C)O)CSSC[C@@H](C(=O)N[C@@H](C)C(N)=O)NC(=O)[C@H](Cc3ccc(O)cc3)NC(=O)[C@H](CCSC)NC(=O)[C@H](CCC(=O)O)NC(=O)[C@H](CC(C)C)NC(=O)[C@H](CCCNC(=N)N)NC(=O)[C@H](CCCNC(=N)N)NC(=O)[C@H](CC(C)C)NC(=O)[C@H](CC(=O)O)NC2=O)NC1=O)C(C)C [IGF-1 A:B(E10 Y16L17)-E31E3 2B-COOH]	36.5%	18.1% and 31.7%	3.0%	14.3		50.0%	
